Measured values reported in ChEMBL document CHEMBL1201862, “PubChem BioAssay data set” (2004).
The source made the active and inactive calls.

Assays:
[1] = biological target: Ras and Rab interactor 1/Tyrosine-protein kinase ABL1 (Homo sapiens, UniProt P00519+Q13671); format: functional;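 also: biochemical TR-FRET dose-response test measuring inhibition of binding between Rin1 and Abl proteins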
[2] = biological target: T1, Histone-lysine N-methyltransferase NSD2 (Homo sapiens, UniProt O96028); format: biochemical
T1 sequence (O96028 whole entry): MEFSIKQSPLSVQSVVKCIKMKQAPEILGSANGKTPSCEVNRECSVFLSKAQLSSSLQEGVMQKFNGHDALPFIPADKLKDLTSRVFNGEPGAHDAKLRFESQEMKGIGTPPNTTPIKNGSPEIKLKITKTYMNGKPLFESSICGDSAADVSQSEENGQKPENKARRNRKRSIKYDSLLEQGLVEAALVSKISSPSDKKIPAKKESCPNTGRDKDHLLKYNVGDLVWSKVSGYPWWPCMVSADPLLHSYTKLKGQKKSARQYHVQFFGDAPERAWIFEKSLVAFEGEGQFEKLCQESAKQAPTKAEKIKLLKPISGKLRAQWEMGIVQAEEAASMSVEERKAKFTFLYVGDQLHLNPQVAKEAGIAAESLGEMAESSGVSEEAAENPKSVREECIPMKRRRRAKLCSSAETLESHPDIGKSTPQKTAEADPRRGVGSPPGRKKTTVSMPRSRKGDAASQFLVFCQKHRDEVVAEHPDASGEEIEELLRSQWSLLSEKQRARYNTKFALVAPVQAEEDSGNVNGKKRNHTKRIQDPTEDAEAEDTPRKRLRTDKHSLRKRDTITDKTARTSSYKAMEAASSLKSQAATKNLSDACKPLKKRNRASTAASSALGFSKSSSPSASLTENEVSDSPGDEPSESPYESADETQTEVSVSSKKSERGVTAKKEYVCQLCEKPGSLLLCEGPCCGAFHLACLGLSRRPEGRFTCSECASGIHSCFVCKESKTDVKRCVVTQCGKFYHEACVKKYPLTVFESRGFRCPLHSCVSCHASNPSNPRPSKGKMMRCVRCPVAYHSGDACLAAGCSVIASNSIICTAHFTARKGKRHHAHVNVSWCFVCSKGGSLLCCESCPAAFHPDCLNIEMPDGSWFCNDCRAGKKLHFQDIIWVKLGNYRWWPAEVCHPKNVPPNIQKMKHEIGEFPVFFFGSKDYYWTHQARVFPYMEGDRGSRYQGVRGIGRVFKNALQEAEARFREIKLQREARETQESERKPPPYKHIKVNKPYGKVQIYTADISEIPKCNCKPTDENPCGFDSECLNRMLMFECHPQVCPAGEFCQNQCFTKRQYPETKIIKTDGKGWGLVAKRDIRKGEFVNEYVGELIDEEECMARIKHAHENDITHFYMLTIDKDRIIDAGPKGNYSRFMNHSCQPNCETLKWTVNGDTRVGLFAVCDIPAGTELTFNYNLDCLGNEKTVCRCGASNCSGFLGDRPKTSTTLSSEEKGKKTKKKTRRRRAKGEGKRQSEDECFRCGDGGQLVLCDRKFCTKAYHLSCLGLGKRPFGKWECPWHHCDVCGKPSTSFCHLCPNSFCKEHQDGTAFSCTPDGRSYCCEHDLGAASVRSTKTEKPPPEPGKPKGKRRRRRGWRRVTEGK

[3] = Shn3 3'UTR reporter inhibitors, dose response, cell-based, Clone20 osteoblasts, firefly luciferase, cherry-picked (AID 624132); format: functional;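 also: firefly luciferase luminescence from reporter carrying the Shn3 3'UTR in osteoblasts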
[4] = HepG2 cell cytotoxicity, dose response, cytotoxicity control for Shn3 inhibitor project, CellTiter-Glo, cherry-picked (AID 624134); format: functional, cell-based
[5] = biological target: Protein Wnt-3a (Mus musculus, UniProt P27467); experiment: Wnt3a-driven reporter signaling inhibition, dose response, selectivity assay for Gli-SUFU antagonist project, Wnt-LIGHT cells, luminescence (AID 651570); format: functional; conditions: read-out: IC50_Mean;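 also: Wnt-LIGHT reporter cells stimulated with conditioned medium from Wnt3a-producing cells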
Chain of Protein Wnt-3a (P27467 whole entry): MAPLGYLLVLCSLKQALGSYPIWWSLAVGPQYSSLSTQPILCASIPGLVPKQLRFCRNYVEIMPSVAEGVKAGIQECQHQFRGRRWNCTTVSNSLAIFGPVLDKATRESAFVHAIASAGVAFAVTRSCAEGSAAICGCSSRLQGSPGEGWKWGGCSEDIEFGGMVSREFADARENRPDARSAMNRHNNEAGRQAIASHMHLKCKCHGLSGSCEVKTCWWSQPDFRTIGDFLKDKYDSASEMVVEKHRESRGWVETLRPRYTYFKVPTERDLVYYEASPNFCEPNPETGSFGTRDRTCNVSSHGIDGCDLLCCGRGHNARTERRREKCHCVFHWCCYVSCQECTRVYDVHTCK

[6] = biological target: T2, COUP transcription factor 2 (Homo sapiens, UniProt P24468); experiment: Luminescence-based cell-based high throughput dose response assay to identify inhibitors of COUP-TFII (NR2F2).; format: functional;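 also: HEK293 cells transiently cotransfected with COUP-TFII expression vector and reporter; luciferase reporter luminescence driven by COUP-TFII from the pX2-168 reporter plasmid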
T2 sequence (P24468 whole entry): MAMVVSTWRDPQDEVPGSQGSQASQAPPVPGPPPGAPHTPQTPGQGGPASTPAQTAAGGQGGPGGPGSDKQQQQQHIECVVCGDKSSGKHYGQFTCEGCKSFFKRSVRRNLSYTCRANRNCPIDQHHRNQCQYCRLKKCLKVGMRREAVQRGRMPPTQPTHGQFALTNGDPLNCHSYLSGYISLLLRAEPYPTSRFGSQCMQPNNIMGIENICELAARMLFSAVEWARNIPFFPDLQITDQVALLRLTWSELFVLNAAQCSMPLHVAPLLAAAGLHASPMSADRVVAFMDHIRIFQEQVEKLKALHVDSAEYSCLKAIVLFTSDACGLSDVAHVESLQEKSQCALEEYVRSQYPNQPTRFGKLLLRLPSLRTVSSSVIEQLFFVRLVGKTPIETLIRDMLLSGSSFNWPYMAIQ

[7] = control 3'UTR Renilla luciferase suppression, dose response, counter-screen for Shn3 inhibitor project, cell-based, Clone20-Shn3RL, cherry-picked (AID 624133); format: functional
[8] = Counterscreen for antagonists of the orexin 1 receptor (OX1R; HCRTR1): Fluorescence-based cell-based high throughput dose response assay to identify antagonists of the parental CHO cell line. [Related pubchem assays (depositor defined):AID434989, AID435008, AID463079, AID485270, AID492963, AID492964, AID492965, AID493232, AID504699, AID504701]; format: functional
[9] = tested on: CHO-K1; experiment: Counterscreen for antagonists of the orexin 1 receptor (OX1R; HCRTR1): Homogeneous time resolved fluorescence (HTRF)-based cell-based dose response assay to identify antagonists of the parental CHO-K1 cell line. [Related pubchem assays (depositor defined):AID434989, AID435008, AID463079, AID485270, AID492963, AID492964, AID492965, AID493232, AID504699, AID504701]; format: functional; conditions: Cricetulus griseus;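 also: potency for inhibition of ATP-stimulated IP1 production as antagonists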
[10] = biological target: T3, Orexin/Hypocretin receptor type 1 (Homo sapiens, UniProt O43613); experiment: Fluorescence-based cell-based high throughput dose response assay for antagonists of the orexin 1 receptor (OX1R; HCRTR1). [Related pubchem assays (depositor defined):AID434989, AID435008, AID463079, AID485270, AID492963, AID492964, AID492965, AID493232, AID504717, AID504718]; format: functional
T3 sequence (O43613 whole entry): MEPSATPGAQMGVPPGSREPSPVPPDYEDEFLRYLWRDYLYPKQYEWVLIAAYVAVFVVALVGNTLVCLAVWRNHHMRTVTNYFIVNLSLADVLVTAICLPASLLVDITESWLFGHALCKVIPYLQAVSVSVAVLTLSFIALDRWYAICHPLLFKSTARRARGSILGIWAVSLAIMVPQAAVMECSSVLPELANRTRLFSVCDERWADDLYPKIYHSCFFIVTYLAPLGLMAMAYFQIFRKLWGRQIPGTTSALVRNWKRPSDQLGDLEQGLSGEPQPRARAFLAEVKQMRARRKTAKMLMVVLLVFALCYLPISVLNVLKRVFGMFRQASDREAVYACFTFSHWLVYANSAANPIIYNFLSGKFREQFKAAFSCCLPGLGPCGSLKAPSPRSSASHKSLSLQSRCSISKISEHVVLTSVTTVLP

[11] = biological target: T3, Orexin/Hypocretin receptor type 1; experiment: Homogeneous Time Resolved Fluorescence (HTRF)-based cell-based high throughput dose response assay for antagonists of the orexin 1 receptor (OX1R; HCRTR1). [Related pubchem assays (depositor defined):AID434989, AID435008, AID463079, AID485270, AID492963, AID492964, AID492965, AID493232, AID504717, AID504718]; format: functional
[12] = biological target: T4, Orexin receptor type 2 (Homo sapiens, UniProt O43614); experiment: Counterscreen assay for antagonists of the orexin 1 receptor (OX1R; HCRTR1): Fluorescence-based cell-based dose response assay for antagonists of the orexin 2 receptor (OX2R; HCRTR2), run by assay provider.; format: functional
T4 sequence (O43614 whole entry): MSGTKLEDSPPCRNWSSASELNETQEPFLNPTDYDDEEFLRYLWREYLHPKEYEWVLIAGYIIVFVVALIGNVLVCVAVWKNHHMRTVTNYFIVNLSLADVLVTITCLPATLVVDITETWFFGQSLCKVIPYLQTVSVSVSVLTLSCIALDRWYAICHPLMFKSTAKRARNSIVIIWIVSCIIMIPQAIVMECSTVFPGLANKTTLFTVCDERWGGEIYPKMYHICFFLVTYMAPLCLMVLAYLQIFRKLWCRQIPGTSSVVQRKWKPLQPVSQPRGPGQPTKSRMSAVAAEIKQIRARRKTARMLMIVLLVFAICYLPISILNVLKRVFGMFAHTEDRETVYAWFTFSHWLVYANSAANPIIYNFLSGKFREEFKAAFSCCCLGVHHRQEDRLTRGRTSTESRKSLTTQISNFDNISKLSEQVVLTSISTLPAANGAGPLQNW

[13] = biological target: T4, Orexin receptor type 2; experiment: Counterscreen assay for antagonists of the orexin 1 receptor (OX1R; HCRTR1): Homogeneous Time Resolved Fluorescence (HTRF)-based cell-based dose response assay for antagonists of the orexin 2 receptor (OX2R; HCRTR2), run by assay provider.; format: functional
[14] = HepG2 cell cytotoxicity, dose response, cytotoxicity control, ATP luminescence, cherry-pick, activator set 2 (AID 1053143); format: functional, cell-based
[15] = Luminescence Cell-Based Dose Confirmation HTS to Identify Inhibitors of Platelet Dense Granule Release. [Related pubchem assays: 1663 (Primary HTS), 1678 (Summary of Project)]; format: functional
[16] = biological target: Luciferin 4-monooxygenase (Photinus pyralis, UniProt P08659); experiment: firefly luciferase enzyme inhibitors, dose response, biochemical, luminescence (AID 1891)
Chain of Luciferin 4-monooxygenase (P08659 whole entry): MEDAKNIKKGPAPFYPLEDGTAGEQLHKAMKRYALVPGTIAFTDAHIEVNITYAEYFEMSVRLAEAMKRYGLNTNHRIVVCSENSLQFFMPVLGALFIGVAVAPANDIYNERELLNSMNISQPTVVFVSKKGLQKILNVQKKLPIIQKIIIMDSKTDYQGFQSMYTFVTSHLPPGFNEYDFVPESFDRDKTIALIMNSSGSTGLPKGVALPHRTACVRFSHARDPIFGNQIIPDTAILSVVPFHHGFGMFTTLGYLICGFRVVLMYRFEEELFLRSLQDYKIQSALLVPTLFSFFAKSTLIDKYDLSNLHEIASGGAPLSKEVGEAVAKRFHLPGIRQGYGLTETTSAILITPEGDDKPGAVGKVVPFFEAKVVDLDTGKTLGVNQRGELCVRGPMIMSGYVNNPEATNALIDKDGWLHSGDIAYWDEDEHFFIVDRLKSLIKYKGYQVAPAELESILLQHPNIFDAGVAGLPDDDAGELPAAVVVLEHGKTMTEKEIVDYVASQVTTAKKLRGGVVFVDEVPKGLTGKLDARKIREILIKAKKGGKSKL

[17] = biological target: T5, RNA-editing ligase 1, mitochondrial (Trypanosoma brucei brucei, UniProt P86926); experiment: TbREL1 ligase inhibitors, dose response, biochemical, fluorescence, Trypanosoma brucei (AID 1117295); format: functional
T5 sequence (P86926 whole entry): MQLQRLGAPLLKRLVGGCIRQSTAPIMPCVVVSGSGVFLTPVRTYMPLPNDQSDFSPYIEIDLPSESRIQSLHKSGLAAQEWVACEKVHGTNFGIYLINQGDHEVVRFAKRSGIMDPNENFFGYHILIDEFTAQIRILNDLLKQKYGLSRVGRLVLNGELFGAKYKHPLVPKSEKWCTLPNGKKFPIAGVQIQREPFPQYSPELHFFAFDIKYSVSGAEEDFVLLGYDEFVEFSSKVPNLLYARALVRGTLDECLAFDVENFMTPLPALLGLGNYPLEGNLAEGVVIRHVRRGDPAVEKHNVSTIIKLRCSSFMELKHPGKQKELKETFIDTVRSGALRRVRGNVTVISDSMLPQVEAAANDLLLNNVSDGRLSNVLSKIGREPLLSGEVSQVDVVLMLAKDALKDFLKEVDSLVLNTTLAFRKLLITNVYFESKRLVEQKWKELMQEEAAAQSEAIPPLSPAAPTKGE

[18] = biological target: T6, Tyrosyl-DNA phosphodiesterase 2 (Homo sapiens, UniProt O95551); experiment: human TDP2 enzyme inhibitors, dose response, biochemical, epi absorbance, IC50 (AID 743297)
T6 sequence (O95551 whole entry): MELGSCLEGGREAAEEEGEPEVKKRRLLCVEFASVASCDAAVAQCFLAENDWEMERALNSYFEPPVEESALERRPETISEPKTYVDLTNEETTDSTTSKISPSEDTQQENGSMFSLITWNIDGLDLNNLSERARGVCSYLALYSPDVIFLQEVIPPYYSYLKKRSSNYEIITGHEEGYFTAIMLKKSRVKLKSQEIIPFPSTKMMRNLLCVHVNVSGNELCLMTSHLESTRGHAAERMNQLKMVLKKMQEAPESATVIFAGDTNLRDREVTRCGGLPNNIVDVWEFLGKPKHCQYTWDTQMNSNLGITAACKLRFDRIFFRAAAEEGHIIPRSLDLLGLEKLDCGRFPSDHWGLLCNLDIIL

[19] = biological target: Mitochondrial peptide methionine sulfoxide reductase (Bos taurus, UniProt P54149); experiment: Absorbance-based biochemical high throughput dose response assay for activators of Methionine sulfoxide reductase A (MsrA).; format: functional
Chain of Mitochondrial peptide methionine sulfoxide reductase (P54149 whole entry): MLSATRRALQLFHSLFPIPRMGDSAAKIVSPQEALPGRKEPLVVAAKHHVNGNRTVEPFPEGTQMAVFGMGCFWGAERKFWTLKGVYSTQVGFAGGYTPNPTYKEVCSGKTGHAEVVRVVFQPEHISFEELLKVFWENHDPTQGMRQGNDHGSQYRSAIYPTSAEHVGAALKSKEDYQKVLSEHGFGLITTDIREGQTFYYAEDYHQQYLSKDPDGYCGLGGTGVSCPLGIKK

Chain of Ras and Rab interactor 1/Tyrosine-protein kinase ABL1 (P00519 whole entry): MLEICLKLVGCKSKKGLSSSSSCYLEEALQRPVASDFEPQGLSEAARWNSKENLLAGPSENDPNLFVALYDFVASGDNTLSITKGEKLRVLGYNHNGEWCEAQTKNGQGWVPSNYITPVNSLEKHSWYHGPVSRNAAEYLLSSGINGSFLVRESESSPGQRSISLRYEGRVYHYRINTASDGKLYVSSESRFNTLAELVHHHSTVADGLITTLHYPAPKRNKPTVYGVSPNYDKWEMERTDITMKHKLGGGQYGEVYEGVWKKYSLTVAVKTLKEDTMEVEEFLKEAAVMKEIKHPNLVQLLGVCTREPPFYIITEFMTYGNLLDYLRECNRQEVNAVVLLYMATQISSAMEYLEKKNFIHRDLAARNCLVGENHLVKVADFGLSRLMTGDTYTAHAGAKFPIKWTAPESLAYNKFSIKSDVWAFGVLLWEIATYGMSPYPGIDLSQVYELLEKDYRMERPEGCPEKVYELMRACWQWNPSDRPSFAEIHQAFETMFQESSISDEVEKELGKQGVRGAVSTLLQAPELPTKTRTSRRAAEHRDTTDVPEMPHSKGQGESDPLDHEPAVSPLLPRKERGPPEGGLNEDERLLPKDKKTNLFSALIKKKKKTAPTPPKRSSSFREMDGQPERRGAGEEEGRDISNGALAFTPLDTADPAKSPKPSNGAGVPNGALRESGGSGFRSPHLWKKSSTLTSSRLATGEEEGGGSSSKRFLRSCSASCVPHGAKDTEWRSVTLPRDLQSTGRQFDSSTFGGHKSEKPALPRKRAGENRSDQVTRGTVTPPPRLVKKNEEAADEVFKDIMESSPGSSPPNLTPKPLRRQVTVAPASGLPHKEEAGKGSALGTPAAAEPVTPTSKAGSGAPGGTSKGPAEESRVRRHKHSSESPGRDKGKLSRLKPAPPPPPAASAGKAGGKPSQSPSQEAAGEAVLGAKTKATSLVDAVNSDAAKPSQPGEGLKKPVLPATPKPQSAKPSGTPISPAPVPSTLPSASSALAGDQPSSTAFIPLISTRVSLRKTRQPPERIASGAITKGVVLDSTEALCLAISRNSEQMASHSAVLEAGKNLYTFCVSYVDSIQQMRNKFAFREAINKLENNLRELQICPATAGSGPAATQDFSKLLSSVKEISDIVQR
Chain of Ras and Rab interactor 1/Tyrosine-protein kinase ABL1 (Q13671 whole entry): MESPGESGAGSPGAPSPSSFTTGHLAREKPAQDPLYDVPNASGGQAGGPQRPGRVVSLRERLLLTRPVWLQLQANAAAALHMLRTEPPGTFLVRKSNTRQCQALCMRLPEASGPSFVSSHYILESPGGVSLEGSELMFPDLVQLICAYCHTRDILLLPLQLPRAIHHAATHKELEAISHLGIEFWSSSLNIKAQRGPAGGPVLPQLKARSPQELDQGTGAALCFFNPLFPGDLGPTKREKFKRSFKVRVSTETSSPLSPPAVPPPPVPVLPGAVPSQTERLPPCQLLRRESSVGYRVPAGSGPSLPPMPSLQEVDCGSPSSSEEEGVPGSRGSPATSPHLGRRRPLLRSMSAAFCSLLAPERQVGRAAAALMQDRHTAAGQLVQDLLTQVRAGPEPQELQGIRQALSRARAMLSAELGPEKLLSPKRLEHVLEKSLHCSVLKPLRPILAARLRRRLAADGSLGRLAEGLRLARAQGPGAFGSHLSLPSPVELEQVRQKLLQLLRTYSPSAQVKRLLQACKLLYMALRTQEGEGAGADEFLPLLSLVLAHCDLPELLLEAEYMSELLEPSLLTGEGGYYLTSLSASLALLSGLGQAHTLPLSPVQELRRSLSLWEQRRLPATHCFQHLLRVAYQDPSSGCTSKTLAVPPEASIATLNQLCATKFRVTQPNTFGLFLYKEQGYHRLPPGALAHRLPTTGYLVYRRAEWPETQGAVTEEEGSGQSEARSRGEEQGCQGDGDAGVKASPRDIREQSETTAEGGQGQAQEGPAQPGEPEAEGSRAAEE

| SMILES | IC50 [8] | IC50 [9] | IC50 [10] | IC50 [11] | IC50 [12] | IC50 [13] | also measured |
| --- | --- | --- | --- | --- | --- | --- | --- |
| Cn1c(=O)c2c(nc(-n3ccnc3)n2Cc2ccc(Cl)cc2Cl)n(C)c1=O | – | – | – | – | – | – | IC50 [1]: 2.62 µM (active) |
| CCOC(=O)CCCCC(=O)c1[nH]c(O)nc1CSc1nc2ccccc2[nH]1 | – | – | – | – | – | – | IC50 [1]: 0.0967 µM (active); AC50 [2]: 7.6 µM (active) |
| CC1C(OC(=O)CCC(=O)NC(C)(C)CO)O[C@H]2OC3(C)CC[C@H]4[C@H](C)CCC1C24OO3 (stereo partly drawn) | – | – | – | – | – | – | AC50 [3]: 0.495 µM (active); AC50 [4]: > 70 µM (inactive); IC50 [5]: 0.794 µM (active); IC50 [6]: > 85.4 µM (inactive); AC50 [7]: 0.841 µM (active) |
| CCOC(=O)N1CCN(C(=O)CSc2ccc(-c3ccccc3)nn2)CC1 | > 49.7 µM (inactive) | > 66.2 µM (inactive) | 16.3 µM (inactive) | 2.12 µM (active) | > 88.8 µM (inactive) | > 50 µM (inactive) | – |
| COc1cccc2oc3ccc(C#Cc4ccccn4)cc3c(=O)c12 | > 49.8 µM (inactive) | > 66.2 µM (inactive) | 13.5 µM (inactive) | 0.881 µM (active) | > 88.8 µM (inactive) | 0.82 µM (active) | AC50 [14]: 16.4 µM (active); EC50 [15]: 5.1 µM (active); EC50 [16]: 1.19 µM (active) |
| Cc1noc(C)c1COc1ccc(C(=O)OCC(=O)N2CC(=O)Nc3ccccc32)cc1 | > 49.8 µM (inactive) | > 66.2 µM (inactive) | 0.861 µM (active) | 14.9 µM (inactive) | > 88.8 µM (inactive) | > 50 µM (inactive) | – |
| COC1=CC(=O)c2nc(Cl)ccc2C1=O | – | – | – | – | – | – | IC50 [17]: 28.3 µM (inactive); AC50 [2]: 4.32 µM (active); IC50 [18]: 4.46 µM (active); EC50 [19]: 44.4 µM (inactive) |
